Source: ChEMBL document CHEMBL5465560, “Selectivity Literature for EUbOPEN Chemogenomic Library” (2024)
Values belong to the compound of their own block, whether it stands above or below them.

Experiments:
[1] = target: Phosphatidylinositol 4-kinase alpha (Homo sapiens, UniProt P42356); assay: Selectivity interaction (ActivX KiNativ screen (kinase selectivity in THP-1 cell lysates)) EUB0000639a PI4KA; format: subcellular; settings: lysate
[2] = Selectivity interaction (Calcium Channel (L) receptor assay: rat brain ) EUB0000877a CACNA1C
[3] = target: Serine/threonine-protein kinase MRCK alpha (Homo sapiens) (UniProt Q5VT25); assay: Selectivity interaction (ProQinase) EUB0000171b CDC42BPA
[4] = target: T1, Ephrin type-B receptor 3 (Homo sapiens) (UniProt P54753); assay: Selectivity interaction (ProQinase) EUB0000171b EPHB3
T1 sequence (whole entry): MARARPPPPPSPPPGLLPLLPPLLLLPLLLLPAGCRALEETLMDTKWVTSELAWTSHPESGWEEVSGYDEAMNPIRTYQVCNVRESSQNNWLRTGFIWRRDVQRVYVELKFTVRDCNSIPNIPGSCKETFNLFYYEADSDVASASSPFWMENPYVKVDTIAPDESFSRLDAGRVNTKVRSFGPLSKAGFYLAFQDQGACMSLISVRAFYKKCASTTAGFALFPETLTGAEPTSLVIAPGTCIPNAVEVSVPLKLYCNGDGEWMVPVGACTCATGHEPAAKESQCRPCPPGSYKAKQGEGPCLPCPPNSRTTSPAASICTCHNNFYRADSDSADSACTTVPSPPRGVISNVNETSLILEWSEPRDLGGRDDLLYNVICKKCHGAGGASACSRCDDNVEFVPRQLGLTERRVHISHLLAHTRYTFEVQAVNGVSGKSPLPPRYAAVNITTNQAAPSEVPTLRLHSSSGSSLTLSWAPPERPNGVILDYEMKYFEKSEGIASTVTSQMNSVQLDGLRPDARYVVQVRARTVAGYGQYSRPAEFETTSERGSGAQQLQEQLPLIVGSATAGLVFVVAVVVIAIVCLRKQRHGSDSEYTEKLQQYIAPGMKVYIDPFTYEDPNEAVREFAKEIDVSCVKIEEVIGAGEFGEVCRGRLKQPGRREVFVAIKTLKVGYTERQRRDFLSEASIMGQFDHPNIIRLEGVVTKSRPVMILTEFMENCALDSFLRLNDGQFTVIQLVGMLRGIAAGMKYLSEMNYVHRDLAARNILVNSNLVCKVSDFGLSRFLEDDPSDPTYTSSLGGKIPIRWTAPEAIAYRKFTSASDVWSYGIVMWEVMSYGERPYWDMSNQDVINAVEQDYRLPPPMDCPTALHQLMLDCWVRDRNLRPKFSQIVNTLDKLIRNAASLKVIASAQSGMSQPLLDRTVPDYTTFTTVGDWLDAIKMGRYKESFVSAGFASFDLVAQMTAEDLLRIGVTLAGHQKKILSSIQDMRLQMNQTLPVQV

[5] = target: T2, Protein kinase C zeta type (Homo sapiens) (UniProt Q05513); assay: Selectivity interaction (ProQinase) EUB0000171b PRKCZ; settings: at 5 µM
T2 sequence (whole entry): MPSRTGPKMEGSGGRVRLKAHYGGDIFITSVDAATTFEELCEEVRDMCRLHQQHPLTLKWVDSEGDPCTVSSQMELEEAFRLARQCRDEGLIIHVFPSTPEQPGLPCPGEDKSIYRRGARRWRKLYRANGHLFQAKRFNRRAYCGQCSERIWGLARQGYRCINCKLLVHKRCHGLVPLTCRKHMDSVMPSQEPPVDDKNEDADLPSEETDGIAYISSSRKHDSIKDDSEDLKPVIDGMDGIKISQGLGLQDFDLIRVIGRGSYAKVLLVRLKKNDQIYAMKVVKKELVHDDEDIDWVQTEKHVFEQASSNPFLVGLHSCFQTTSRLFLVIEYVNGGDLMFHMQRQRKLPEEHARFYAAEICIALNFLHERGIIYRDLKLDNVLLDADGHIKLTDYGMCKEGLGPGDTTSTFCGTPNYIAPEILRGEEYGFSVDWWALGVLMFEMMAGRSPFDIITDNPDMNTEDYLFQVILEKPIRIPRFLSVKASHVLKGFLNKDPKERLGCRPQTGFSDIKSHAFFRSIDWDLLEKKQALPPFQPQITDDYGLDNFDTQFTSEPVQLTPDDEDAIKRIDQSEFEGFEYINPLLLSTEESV

[6] = target: Serine/threonine-protein kinase RIO2 (Homo sapiens) (UniProt Q9BVS4); assay: Selectivity interaction (KinomeScan (DiscoverX)) EUB0000655a RIOK2; settings: at 10 µM
[7] = target: T3, Myotonin-protein kinase (Homo sapiens) (UniProt Q09013); assay: Selectivity interaction (KinomeScan (DiscoverX)) EUB0001619a DMPK; settings: at 1 µM
T3 sequence (whole entry): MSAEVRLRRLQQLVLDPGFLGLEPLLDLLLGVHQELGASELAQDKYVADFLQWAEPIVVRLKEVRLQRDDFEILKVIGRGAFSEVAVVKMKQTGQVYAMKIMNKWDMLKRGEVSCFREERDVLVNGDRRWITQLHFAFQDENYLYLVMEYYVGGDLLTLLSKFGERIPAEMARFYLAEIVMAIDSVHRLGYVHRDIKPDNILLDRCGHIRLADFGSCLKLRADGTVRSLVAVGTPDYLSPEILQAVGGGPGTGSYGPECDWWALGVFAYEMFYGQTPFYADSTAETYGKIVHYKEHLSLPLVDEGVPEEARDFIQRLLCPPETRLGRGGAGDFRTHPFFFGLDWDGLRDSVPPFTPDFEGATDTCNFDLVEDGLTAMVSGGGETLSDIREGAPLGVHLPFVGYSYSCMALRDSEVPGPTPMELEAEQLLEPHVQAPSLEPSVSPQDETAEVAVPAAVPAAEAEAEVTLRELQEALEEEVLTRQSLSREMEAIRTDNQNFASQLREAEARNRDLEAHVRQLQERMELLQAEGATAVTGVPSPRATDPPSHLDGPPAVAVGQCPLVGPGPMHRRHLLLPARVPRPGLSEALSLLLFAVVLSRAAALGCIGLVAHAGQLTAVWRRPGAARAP

[8] = tested on: Fibroblast growth factor receptor 3 (Homo sapiens), P22607 [G697C]; assay: (§1) Selectivity interaction (KinomeScan (DiscoverX)) EUB0000618a FGFR3; settings: at 10 µM
[9] = target: Fibroblast growth factor receptor 3 (Homo sapiens, UniProt P22607); assay: as §1; settings: at 10 µM
[10] = target: Serine/threonine-protein kinase 25 (Homo sapiens) (UniProt O00506); assay: Selectivity interaction (SelectScreen profiling (Invitrogen)) EUB0000607a STK25; settings: at 2 µM
[11] = target: Tyrosine-protein kinase Yes (Homo sapiens) (UniProt P07947); assay: Selectivity interaction (SelectScreen profiling (Invitrogen)) EUB0000607a YES1; settings: at 2 µM

Chain of Phosphatidylinositol 4-kinase alpha (P42356 whole entry, looked up): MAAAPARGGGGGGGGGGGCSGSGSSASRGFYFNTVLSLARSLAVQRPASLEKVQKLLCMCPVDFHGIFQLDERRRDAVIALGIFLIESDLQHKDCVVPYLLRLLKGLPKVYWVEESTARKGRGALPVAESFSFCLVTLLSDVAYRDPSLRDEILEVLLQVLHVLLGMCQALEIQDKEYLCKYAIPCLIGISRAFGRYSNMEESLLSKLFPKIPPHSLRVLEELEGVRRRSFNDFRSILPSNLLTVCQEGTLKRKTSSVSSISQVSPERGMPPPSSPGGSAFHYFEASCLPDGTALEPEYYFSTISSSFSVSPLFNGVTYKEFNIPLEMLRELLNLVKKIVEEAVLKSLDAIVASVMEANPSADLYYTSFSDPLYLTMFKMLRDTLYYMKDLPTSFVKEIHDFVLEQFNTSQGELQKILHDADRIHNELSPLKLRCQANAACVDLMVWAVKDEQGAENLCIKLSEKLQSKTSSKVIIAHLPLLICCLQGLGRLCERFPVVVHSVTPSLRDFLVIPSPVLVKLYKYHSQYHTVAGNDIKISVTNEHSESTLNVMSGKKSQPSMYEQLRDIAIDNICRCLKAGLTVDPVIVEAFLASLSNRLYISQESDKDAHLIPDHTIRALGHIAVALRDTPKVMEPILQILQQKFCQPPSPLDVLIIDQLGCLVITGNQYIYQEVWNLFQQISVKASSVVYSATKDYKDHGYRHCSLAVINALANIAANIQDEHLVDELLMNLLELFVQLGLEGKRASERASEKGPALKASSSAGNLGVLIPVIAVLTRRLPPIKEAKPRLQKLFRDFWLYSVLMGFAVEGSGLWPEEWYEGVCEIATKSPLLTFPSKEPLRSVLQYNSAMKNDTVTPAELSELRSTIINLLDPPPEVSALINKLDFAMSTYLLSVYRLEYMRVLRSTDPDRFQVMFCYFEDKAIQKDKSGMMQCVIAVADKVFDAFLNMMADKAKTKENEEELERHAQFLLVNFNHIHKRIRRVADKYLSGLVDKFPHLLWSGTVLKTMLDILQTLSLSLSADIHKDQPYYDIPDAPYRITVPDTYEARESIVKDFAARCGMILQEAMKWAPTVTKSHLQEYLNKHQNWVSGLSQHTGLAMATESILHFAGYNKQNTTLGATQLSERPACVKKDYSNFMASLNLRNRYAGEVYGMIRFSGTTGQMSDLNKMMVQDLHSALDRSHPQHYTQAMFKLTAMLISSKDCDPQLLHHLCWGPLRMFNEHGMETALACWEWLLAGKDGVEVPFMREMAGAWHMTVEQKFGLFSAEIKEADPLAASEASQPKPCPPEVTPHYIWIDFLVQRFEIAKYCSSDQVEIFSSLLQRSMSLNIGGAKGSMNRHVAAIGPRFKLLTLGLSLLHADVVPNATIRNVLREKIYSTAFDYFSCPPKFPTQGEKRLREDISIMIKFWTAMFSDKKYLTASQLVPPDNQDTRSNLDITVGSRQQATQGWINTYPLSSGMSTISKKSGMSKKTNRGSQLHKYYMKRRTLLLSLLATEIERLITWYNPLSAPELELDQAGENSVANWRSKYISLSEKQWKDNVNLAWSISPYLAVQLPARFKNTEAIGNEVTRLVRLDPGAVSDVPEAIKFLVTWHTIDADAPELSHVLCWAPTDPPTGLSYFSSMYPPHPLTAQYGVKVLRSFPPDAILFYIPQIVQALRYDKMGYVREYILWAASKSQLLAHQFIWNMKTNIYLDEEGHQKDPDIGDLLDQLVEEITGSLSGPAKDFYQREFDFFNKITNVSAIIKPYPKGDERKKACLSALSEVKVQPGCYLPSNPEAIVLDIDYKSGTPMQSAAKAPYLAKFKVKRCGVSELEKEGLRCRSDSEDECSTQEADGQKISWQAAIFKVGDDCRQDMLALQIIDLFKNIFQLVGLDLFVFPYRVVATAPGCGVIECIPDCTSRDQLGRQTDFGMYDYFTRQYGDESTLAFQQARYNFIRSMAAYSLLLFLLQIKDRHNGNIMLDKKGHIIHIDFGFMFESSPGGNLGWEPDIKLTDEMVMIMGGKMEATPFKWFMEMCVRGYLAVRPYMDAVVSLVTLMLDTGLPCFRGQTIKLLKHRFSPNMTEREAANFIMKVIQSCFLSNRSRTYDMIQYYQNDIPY
Chain of Serine/threonine-protein kinase MRCK alpha (Homo sapiens) (Q5VT25 whole entry): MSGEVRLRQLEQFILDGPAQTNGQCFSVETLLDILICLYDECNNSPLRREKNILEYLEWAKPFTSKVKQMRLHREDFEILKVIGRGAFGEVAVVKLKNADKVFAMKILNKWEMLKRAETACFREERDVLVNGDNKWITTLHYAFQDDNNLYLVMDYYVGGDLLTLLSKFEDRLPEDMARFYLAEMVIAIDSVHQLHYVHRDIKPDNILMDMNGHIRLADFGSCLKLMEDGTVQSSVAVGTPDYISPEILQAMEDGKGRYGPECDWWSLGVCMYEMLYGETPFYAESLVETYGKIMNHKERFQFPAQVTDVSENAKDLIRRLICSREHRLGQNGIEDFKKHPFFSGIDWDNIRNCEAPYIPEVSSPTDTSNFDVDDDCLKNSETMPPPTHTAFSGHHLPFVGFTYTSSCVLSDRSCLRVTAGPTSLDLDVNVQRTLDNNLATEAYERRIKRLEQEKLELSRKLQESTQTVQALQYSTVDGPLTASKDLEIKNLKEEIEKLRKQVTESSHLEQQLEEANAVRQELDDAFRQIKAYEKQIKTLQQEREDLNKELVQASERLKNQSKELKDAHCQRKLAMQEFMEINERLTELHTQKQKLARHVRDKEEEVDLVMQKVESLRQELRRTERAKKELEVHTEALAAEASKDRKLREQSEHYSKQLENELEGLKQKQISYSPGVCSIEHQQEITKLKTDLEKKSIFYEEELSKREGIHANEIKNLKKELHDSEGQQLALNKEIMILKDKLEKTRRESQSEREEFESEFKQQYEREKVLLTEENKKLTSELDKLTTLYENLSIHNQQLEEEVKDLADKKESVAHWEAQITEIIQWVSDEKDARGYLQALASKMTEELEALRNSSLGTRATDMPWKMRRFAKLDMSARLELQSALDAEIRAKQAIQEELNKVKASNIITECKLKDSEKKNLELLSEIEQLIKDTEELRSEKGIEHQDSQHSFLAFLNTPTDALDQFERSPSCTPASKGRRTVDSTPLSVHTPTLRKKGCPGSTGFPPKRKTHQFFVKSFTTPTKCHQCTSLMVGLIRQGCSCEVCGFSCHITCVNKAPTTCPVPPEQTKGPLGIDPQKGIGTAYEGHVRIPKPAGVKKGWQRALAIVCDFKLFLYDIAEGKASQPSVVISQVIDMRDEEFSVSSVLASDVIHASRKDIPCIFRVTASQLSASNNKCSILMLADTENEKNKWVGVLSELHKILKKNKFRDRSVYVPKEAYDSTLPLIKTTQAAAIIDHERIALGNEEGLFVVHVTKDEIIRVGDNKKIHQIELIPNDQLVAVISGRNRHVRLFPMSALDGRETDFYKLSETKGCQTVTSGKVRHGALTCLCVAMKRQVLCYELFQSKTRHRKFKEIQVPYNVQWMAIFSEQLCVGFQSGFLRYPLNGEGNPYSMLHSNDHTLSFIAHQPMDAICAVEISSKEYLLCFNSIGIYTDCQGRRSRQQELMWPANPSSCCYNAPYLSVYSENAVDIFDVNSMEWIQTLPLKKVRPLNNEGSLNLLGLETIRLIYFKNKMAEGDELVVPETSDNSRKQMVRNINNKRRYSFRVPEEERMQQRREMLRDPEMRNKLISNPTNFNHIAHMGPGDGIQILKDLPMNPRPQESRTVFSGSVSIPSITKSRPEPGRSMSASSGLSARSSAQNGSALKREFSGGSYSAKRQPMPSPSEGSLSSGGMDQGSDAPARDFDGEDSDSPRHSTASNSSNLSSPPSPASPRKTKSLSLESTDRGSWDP
Chain of Fibroblast growth factor receptor 3 (P22607 23-806 limits assumed): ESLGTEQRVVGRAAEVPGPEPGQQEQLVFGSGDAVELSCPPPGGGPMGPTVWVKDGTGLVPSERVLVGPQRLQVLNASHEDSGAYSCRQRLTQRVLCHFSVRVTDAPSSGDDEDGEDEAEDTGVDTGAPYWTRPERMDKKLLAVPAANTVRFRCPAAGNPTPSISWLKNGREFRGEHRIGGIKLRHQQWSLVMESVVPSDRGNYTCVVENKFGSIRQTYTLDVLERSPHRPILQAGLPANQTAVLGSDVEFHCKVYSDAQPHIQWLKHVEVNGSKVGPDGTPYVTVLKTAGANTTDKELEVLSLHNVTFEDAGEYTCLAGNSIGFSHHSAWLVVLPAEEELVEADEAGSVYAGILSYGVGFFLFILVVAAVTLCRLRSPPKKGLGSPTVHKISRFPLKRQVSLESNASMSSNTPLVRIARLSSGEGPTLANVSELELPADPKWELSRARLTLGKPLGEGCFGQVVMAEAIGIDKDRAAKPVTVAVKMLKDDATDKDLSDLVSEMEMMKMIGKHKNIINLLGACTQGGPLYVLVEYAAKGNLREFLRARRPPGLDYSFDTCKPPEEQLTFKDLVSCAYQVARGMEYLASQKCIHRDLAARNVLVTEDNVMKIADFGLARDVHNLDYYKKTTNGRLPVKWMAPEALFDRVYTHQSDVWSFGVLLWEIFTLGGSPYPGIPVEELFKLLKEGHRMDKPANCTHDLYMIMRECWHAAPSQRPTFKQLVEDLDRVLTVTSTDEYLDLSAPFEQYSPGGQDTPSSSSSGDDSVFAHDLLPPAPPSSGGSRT
Chain of Serine/threonine-protein kinase 25 (Homo sapiens) (O00506 whole entry, looked up): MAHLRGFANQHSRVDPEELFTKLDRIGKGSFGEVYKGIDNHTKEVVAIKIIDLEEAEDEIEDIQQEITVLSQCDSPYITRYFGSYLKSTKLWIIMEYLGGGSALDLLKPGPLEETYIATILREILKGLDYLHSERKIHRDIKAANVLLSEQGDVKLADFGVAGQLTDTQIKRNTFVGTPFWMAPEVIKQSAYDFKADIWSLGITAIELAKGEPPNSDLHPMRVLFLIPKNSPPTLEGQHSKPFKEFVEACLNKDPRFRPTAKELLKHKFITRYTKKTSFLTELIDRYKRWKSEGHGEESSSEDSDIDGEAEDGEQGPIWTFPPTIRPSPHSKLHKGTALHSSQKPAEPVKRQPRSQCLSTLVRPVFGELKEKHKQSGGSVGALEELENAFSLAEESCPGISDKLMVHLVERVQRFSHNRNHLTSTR

% of inhibition ([1]; at 0.01 µM): 7.2%
% of inhibition ([1]; at 0.04 µM): -7.1%
% of inhibition ([1]; at 0.2 µM): -24.4%
% of inhibition ([1]; at 1 µM): -6%
% of inhibition ([1]; at 5 µM): 38.5%
SMILES: CC[C@@H]1[C@H](F)C(=O)N[C@@H]1COc1nccc2cc(C(N)=O)c(OC)cc12 [ZIMLOVISERTIB]

IC50 [2]: > 30 µM
SMILES: CCC(=O)N1CC[C@H](Nc2ncnc3c2CN(c2cnc(OC)c(C(F)(F)F)c2)CC3)C1 [LENIOLISIB]

% of control ([3]; at 1 µM): 102%
% of control ([3]; at 5 µM): 91%
% of control ([4]; at 1 µM): 106%
% of control ([4]; at 5 µM): 108%
% of control [5]: 68%
SMILES: C=CC(=O)Nc1cccc(C(=O)Nc2ccc(Nc3cc(-c4[nH]c(SC)nc4C)ccn3)cc2)c1

SMILES: CN(C)CCOc1ccc(-c2nc(-c3ccncc3)c(-c3ccc4c(c3)CC/C4=N\O)[nH]2)cc1
% of control [6]: 6%

SMILES: N#Cc1cccc(-c2c[nH]c3ncnc(N4CCOCC4)c23)c1
% of control [7]: 87%

SMILES: O[C@H]1CC[C@H](Nc2ncc3nc(Nc4c(F)cc(F)cc4F)n([C@H]4CCOC4)c3n2)CC1
% of control [8]: 82%
% of control [9]: 88%

SMILES: CNC(=O)Nc1ccc(-c2nc(N3CC4CCC(C3)O4)c3cnn(C4CCC5(CC4)OCCO5)c3n2)cc1
% of inhibition [10]: 2%
% of inhibition [11]: 2%
